Organism: Rattus norvegicus
Assay: DrugMatrix - Regimen: Daily Repeat
Assay type: toxicity, organism-based, Sprague-Dawley
Design: regimen Daily Repeat, gender Male, age 6-8 weeks
Conditions: in vivo, po, route oral GAVAGE, […]; for ABSOLUTE BASOPHIL / ABSOLUTE EOSINOPHIL / ABSOLUTE LYMPHOCYTE / ABSOLUTE MONOCYTE / ABSOLUTE SEGMENTED NEUTROPHIL / BASOPHIL / EOSINOPHIL / ERYTHROCYTE COUNT / HEMATOCRIT / HEMOGLOBIN / LEUKOCYTE COUNT / LYMPHOCYTE / MEAN CORPUSCULAR HEMOGLOBIN / MEAN CORPUSCULAR HEMOGLOBIN CONCENTRATION / MEAN CORPUSCULAR VOLUME / MONOCYTE / NEUTROPHIL / NUCLEATED RED BLOOD CELLS / PLATELET COUNT: tissue Blood; for ALANINE AMINOTRANSFERASE / ALBUMIN / ALKALINE PHOSPHATASE / ASPARTATE AMINOTRANSFERASE / BLOOD UREA NITROGEN / CARBON DIOXIDE / CHLORIDE / CHOLESTEROL / CREATINE PHOSPHOKINASE / CREATININE / GLUCOSE / LACTATE DEHYDROGENASE / LIPASE / PHOSPHORUS / POTASSIUM / SODIUM / TOTAL BILIRUBIN / TOTAL PROTEIN / URIC ACID: tissue Plasma
[1] = 0 mg/kg, 72 h, dose level Control, time 3 day
[2] = 0 mg/kg, 120 h, dose level Control, time 5 day
[3] = 43 mg/kg, 72 h, dose level Low, time 3 day
[4] = 43 mg/kg, 120 h, dose level Low, time 5 day

Structure (SMILES): Clc1ccc(COC(Cn2ccnc2)c2ccc(Cl)cc2Cl)cc1 (configuration not stated) [ECONAZOLE]
- ABSOLUTE BASOPHIL [1]: 0 CELLS/uL
- ABSOLUTE EOSINOPHIL [1]: 0 CELLS/uL
- ABSOLUTE LYMPHOCYTE [1]: 7601 CELLS/uL
- ABSOLUTE MONOCYTE [1]: 354.33 CELLS/uL
- ABSOLUTE SEGMENTED NEUTROPHIL [1]: 744.67 CELLS/uL
- BASOPHIL [1]: 0%
- EOSINOPHIL [1]: 0%
- ERYTHROCYTE COUNT [1]: 5.03 x10E6/uL
- HEMATOCRIT [1]: 33.7%
- HEMOGLOBIN [1]: 13.43 G/DL
- LEUKOCYTE COUNT [1]: 8.7 x10E3/uL
- LYMPHOCYTE [1]: 86.33%
- MEAN CORPUSCULAR HEMOGLOBIN [1]: 26.7 pg
- MEAN CORPUSCULAR HEMOGLOBIN CONCENTRATION [1]: 39.83 G/DL
- MEAN CORPUSCULAR VOLUME [1]: 67 fL
- MONOCYTE [1]: 4.67%
- NEUTROPHIL [1]: 9%
- NUCLEATED RED BLOOD CELLS [1]: 0 /100WBC
- PLATELET COUNT [1]: 1151 x10E3/uL
- ALANINE AMINOTRANSFERASE [1]: 97.67 u/L
- ALBUMIN [1]: 4.07 G/DL
- ALKALINE PHOSPHATASE [1]: 607.67 u/L
- ASPARTATE AMINOTRANSFERASE [1]: 101 u/L
- BLOOD UREA NITROGEN [1]: 13.33 mg/dL
- CARBON DIOXIDE [1]: 36 mmol/L
- CHLORIDE [1]: 99.67 MEQ/L
- CHOLESTEROL [1]: 75.67 mg/dL
- CREATINE PHOSPHOKINASE [1]: 279.67 u/L
- CREATININE [1]: 0.16 mg/dL
- GLUCOSE [1]: 164 mg/dL
- LACTATE DEHYDROGENASE [1]: 115 u/L
- LIPASE [1]: 12.67 u/L
- PHOSPHORUS [1]: 8.77 mg/dL
- POTASSIUM [1]: 5.79 MEQ/L
- SODIUM [1]: 142.83 MEQ/L
- TOTAL BILIRUBIN [1]: 0.27 mg/dL
- TOTAL PROTEIN [1]: 5.8 G/DL
- URIC ACID [1]: 0.67 mg/dL
- ABSOLUTE BASOPHIL [2]: 0 CELLS/uL
- ABSOLUTE EOSINOPHIL [2]: 0 CELLS/uL
- ABSOLUTE LYMPHOCYTE [2]: 4426.33 CELLS/uL
- ABSOLUTE MONOCYTE [2]: 102.67 CELLS/uL
- ABSOLUTE SEGMENTED NEUTROPHIL [2]: 337.67 CELLS/uL
- BASOPHIL [2]: 0%
- EOSINOPHIL [2]: 0%
- ERYTHROCYTE COUNT [2]: 5.31 x10E6/uL
- HEMATOCRIT [2]: 32.5%
- HEMOGLOBIN [2]: 13.17 G/DL
- LEUKOCYTE COUNT [2]: 4.87 x10E3/uL
- LYMPHOCYTE [2]: 90.33%
- MEAN CORPUSCULAR HEMOGLOBIN [2]: 24.93 pg
- MEAN CORPUSCULAR HEMOGLOBIN CONCENTRATION [2]: 40.67 G/DL
- MEAN CORPUSCULAR VOLUME [2]: 61.33 fL
- MONOCYTE [2]: 2.33%
- NEUTROPHIL [2]: 7.33%
- NUCLEATED RED BLOOD CELLS [2]: 0.33 /100WBC
- PLATELET COUNT [2]: 848.33 x10E3/uL
- ALANINE AMINOTRANSFERASE [2]: 59.67 u/L
- ALBUMIN [2]: 3.87 G/DL
- ALKALINE PHOSPHATASE [2]: 452 u/L
- ASPARTATE AMINOTRANSFERASE [2]: 81.33 u/L
- BLOOD UREA NITROGEN [2]: 13.67 mg/dL
- CARBON DIOXIDE [2]: 26.33 mmol/L
- CHLORIDE [2]: 103.67 MEQ/L
- CHOLESTEROL [2]: 65.67 mg/dL
- CREATINE PHOSPHOKINASE [2]: 355.33 u/L
- CREATININE [2]: 0.14 mg/dL
- GLUCOSE [2]: 171.33 mg/dL
- LACTATE DEHYDROGENASE [2]: 118 u/L
- LIPASE [2]: 11.33 u/L
- PHOSPHORUS [2]: 11.13 mg/dL
- POTASSIUM [2]: 5.18 MEQ/L
- SODIUM [2]: 143.17 MEQ/L
- TOTAL BILIRUBIN [2]: 0.2 mg/dL
- TOTAL PROTEIN [2]: 5.87 G/DL
- URIC ACID [2]: 0.63 mg/dL
- ABSOLUTE BASOPHIL [3]: 0 CELLS/uL
- ABSOLUTE EOSINOPHIL [3]: 68.67 CELLS/uL
- ABSOLUTE LYMPHOCYTE [3]: 8555.33 CELLS/uL
- ABSOLUTE MONOCYTE [3]: 189.33 CELLS/uL
- ABSOLUTE SEGMENTED NEUTROPHIL [3]: 653.33 CELLS/uL
- BASOPHIL [3]: 0%
- EOSINOPHIL [3]: 0.67%
- ERYTHROCYTE COUNT [3]: 4.93 x10E6/uL
- HEMATOCRIT [3]: 32.1%
- HEMOGLOBIN [3]: 12.8 G/DL
- LEUKOCYTE COUNT [3]: 9.47 x10E3/uL
- LYMPHOCYTE [3]: 90.67%
- MEAN CORPUSCULAR HEMOGLOBIN [3]: 25.97 pg
- MEAN CORPUSCULAR HEMOGLOBIN CONCENTRATION [3]: 39.9 G/DL
- MEAN CORPUSCULAR VOLUME [3]: 65.1 fL
- MONOCYTE [3]: 2%
- NEUTROPHIL [3]: 6.67%
- NUCLEATED RED BLOOD CELLS [3]: 0 /100WBC
- PLATELET COUNT [3]: 1050.67 x10E3/uL
- ALANINE AMINOTRANSFERASE [3]: 100.33 u/L
- ALBUMIN [3]: 3.8 G/DL
- ALKALINE PHOSPHATASE [3]: 429 u/L
- ASPARTATE AMINOTRANSFERASE [3]: 104.67 u/L
- BLOOD UREA NITROGEN [3]: 11.33 mg/dL
- CARBON DIOXIDE [3]: 37.67 mmol/L
- CHLORIDE [3]: 107 MEQ/L
- CHOLESTEROL [3]: 72.33 mg/dL
- CREATINE PHOSPHOKINASE [3]: 331 u/L
- CREATININE [3]: 0.19 mg/dL
- GLUCOSE [3]: 156.67 mg/dL
- LACTATE DEHYDROGENASE [3]: 94 u/L
- LIPASE [3]: 10.33 u/L
- PHOSPHORUS [3]: 9.27 mg/dL
- POTASSIUM [3]: 5.1 MEQ/L
- SODIUM [3]: 138.9 MEQ/L
- TOTAL BILIRUBIN [3]: 0.13 mg/dL
- TOTAL PROTEIN [3]: 5.6 G/DL
- URIC ACID [3]: 0.57 mg/dL
- ABSOLUTE BASOPHIL [4]: 0 CELLS/uL
- ABSOLUTE EOSINOPHIL [4]: 31.33 CELLS/uL
- ABSOLUTE LYMPHOCYTE [4]: 7327.67 CELLS/uL
- ABSOLUTE MONOCYTE [4]: 294.67 CELLS/uL
- ABSOLUTE SEGMENTED NEUTROPHIL [4]: 379.67 CELLS/uL
- BASOPHIL [4]: 0%
- EOSINOPHIL [4]: 0.33%
- ERYTHROCYTE COUNT [4]: 5.33 x10E6/uL
- HEMATOCRIT [4]: 33.3%
- HEMOGLOBIN [4]: 13 G/DL
- LEUKOCYTE COUNT [4]: 8.03 x10E3/uL
- LYMPHOCYTE [4]: 91%
- MEAN CORPUSCULAR HEMOGLOBIN [4]: 24.4 pg
- MEAN CORPUSCULAR HEMOGLOBIN CONCENTRATION [4]: 39.07 G/DL
- MEAN CORPUSCULAR VOLUME [4]: 62.47 fL
- MONOCYTE [4]: 3.67%
- NEUTROPHIL [4]: 5%
- NUCLEATED RED BLOOD CELLS [4]: 0 /100WBC
- PLATELET COUNT [4]: 1117.67 x10E3/uL
- ALANINE AMINOTRANSFERASE [4]: 59 u/L
- ALBUMIN [4]: 3.97 G/DL
- ALKALINE PHOSPHATASE [4]: 377.67 u/L
- ASPARTATE AMINOTRANSFERASE [4]: 79 u/L
- BLOOD UREA NITROGEN [4]: 12.33 mg/dL
- CARBON DIOXIDE [4]: 28.67 mmol/L
- CHLORIDE [4]: 104.33 MEQ/L
- CHOLESTEROL [4]: 71.33 mg/dL
- CREATINE PHOSPHOKINASE [4]: 198.33 u/L
- CREATININE [4]: 0.22 mg/dL
- GLUCOSE [4]: 162 mg/dL
- LACTATE DEHYDROGENASE [4]: 63 u/L
- LIPASE [4]: 12.33 u/L
- PHOSPHORUS [4]: 10.33 mg/dL
- POTASSIUM [4]: 5.68 MEQ/L
- SODIUM [4]: 144.73 MEQ/L
- TOTAL BILIRUBIN [4]: 0.17 mg/dL
- TOTAL PROTEIN [4]: 5.93 G/DL
- URIC ACID [4]: 0.5 mg/dL
